The data set is described as follows: Human HepG2 cell viability assay in 384 well format. Particulars: HepG2 cells, read-out: Inhibition. Further details: dose 125 nL, time 70.5 hour; cytotoxicity at 70.5 h: concentration not given beside the values. The format is toxicity, cell-based.

SMILES strings stand for the structures.

Turning to `CCn1ccnc1CN(C)Cc1nc(CCC(C)C)no1`, the cytotoxicity at 70.5 h is 1.4%.

`O=C(O)C(c1ccc2[nH]ccc2c1)N1CCOCC1` (configuration not stated): the cytotoxicity at 70.5 h amounted to 9.07%.

Take `Cc1ccsc1CNc1ccccc1C(=O)N1CCNC(=O)C1`: the cytotoxicity at 70.5 h stood at 16.9%.

On to `O=S(=O)(c1cccc(F)c1)N1C[C@@H]2CC[C@H](C1)N(Cc1ccccc1)C2`, for which the cytotoxicity at 70.5 h is -12.7%.

`CCN1CC(C(=O)N(C)Cc2cc3cc(F)ccc3[nH]2)CC1=O` (configuration not stated): the cytotoxicity at 70.5 h is -0.954%.

On to `CC(C)Oc1ccc(CN2CCCC(N3CCCC3)C2)cc1CO` (configuration not stated), for which the cytotoxicity at 70.5 h worked out at 2.77%.

`O=C(c1ccc2cccc(F)c2n1)N1CCN(CCn2cccc2)CC1`: the cytotoxicity at 70.5 h worked out at 9.26%.

Turning to `O=C(c1ccc(-c2cccc3c2CCNC3)o1)N1CCOCC1`, the cytotoxicity at 70.5 h is -6.54%.

For the compound `Cc1csc2ncn(C(C)Cc3cccnc3)c(=O)c12` (configuration not stated), the cytotoxicity at 70.5 h is -4.53%.

Regarding `O=c1[nH]c(-c2ccc(F)c(F)c2)nc2c1CCNC2`, the cytotoxicity at 70.5 h is -1.92%.

`COCCCC1(CO)CCCN(CCc2ccccn2)C1` (configuration not stated): the cytotoxicity at 70.5 h was determined as 0.702%.

Regarding `COc1cnc(N2CCCN(c3ccc(F)cc3)CC2)nc1`, the cytotoxicity at 70.5 h stood at 8.19%.

`CN(Cc1n[nH]c(=O)n1Cc1ccco1)S(C)(=O)=O`: the cytotoxicity at 70.5 h worked out at 2.27%.

With `NC(=O)c1csc(N2C[C@@H](CN3CCCCC3)[C@@H](CO)C2)n1`, the cytotoxicity at 70.5 h is -6.7%.

For `Cc1cc(CN(C)C(=O)C(c2ccccc2C)N(C)C)on1` (configuration not stated), the cytotoxicity at 70.5 h is -6.35%.

On to `CCCN(Cc1cccnc1)C(=O)C1CCCN(C)C1` (configuration not stated), for which the cytotoxicity at 70.5 h was 2.68%.

With `Cc1nc[nH]c1CN1CCC(C2CCN(CCc3ccccc3)C2)CC1` (configuration not stated), the cytotoxicity at 70.5 h is -1.67%.

Take `Cc1ccc(C(=O)N[C@H]2CN(CCO)C[C@@H]2C2CC2)cc1Cl`: the cytotoxicity at 70.5 h came to 1.11%.

Regarding `CCc1cc(N2CC(N3CCCCC3C)C2)n2nccc2n1` (configuration not stated), the cytotoxicity at 70.5 h amounted to 6.74%.

Consider `C=C(C)COc1cccc(C(=O)N(CC)Cc2noc(C)n2)c1`, for which the cytotoxicity at 70.5 h is -3.04%.

With `COc1ccc(-c2n[nH]cc2CN(C)Cc2nonc2C)c(F)c1`, the cytotoxicity at 70.5 h is -3.77%.

For `CCC[C@@H]1CN(Cc2cc(C#N)n(C)c2C)C[C@H]1NS(C)(=O)=O`, the cytotoxicity at 70.5 h is -6.42%.

On to `CCc1cnc(N)nc1NCCCN1CCCCC1CO` (configuration not stated), for which the cytotoxicity at 70.5 h was -8.8%.

On to `COCCn1ccnc1C1CCCN(c2cc(OC)nc(N)n2)C1` (configuration not stated), for which the cytotoxicity at 70.5 h amounted to 31.1%.

Consider `Cc1nccn1CCN(C)c1cc(C(C)C)nc2ccnn12`, for which the cytotoxicity at 70.5 h is -2.26%.

As to `Nc1ccnc(-c2cc(NC3CCNCC3)nc3[nH]ccc23)c1`, the cytotoxicity at 70.5 h is -3.27%.

As for `Cc1ccc(-n2c(COCC(=O)O)nc3c(C)cccc32)nc1`, the cytotoxicity at 70.5 h is -4.5%.

Turning to `COCc1nc(NC(C)Cc2cc(C)n[nH]2)c2cnn(C)c2n1` (configuration not stated), the cytotoxicity at 70.5 h is -0.0562%.

For the compound `CCC(NC(=O)c1cc(CC(C)C)nn1C)c1cc(C)ccn1` (configuration not stated), the cytotoxicity at 70.5 h was -19.2%.

On to `Cc1ccc(S(=O)(=O)N2CCN(C)C3(CCC(=O)N(C)CC3)C2)s1` (configuration not stated), for which the cytotoxicity at 70.5 h is -5.58%.

Regarding `O=C(c1cccc(S(=O)(=O)NCCc2cscn2)c1)N1CCOCC1`, the cytotoxicity at 70.5 h was -1.05%.

`COc1ccccc1OC1CCN(c2nccc(N)n2)CC1`: the cytotoxicity at 70.5 h worked out at 19.5%.

In the case of `O=C1NC[C@@]2(C(=O)O)CN(Cc3ccc(Oc4ccccc4)cc3)C[C@@H]12`, the cytotoxicity at 70.5 h is -1.43%.

For the compound `O=C(CCC1CCCN(C(=O)CCc2ccc(F)c(F)c2)C1)NC1CC1` (configuration not stated), the cytotoxicity at 70.5 h was -8.38%.

Regarding `COc1cc(CN2CCC(O)(c3ccc(C)cn3)CC2)cc(Cl)c1OC`, the cytotoxicity at 70.5 h stood at 17.5%.

For the compound `NC(=O)c1cccnc1N1CCN(c2ncnc3c2CCNC3)CC1`, the cytotoxicity at 70.5 h is -1.91%.

Regarding `Cc1cnc(NCCc2c[nH]cn2)nc1-c1ccnn1C`, the cytotoxicity at 70.5 h was -11.6%.

Turning to `O=C1N(CC2CCC2)CCCC12CCN(S(=O)(=O)c1cccnc1)C2` (configuration not stated), the cytotoxicity at 70.5 h was -4.23%.

Take `COc1ccccc1-c1ncc(CN2C[C@H](O)[C@@H](N3CCCC3)C2)s1`: the cytotoxicity at 70.5 h was -14.6%.

`Cn1ccc(C(=O)N2CCCN(CCCc3ccccc3)CC2)cc1=O`: the cytotoxicity at 70.5 h was -17.2%.

Turning to `Cc1ccc2cc(CN(C)Cc3ncc[nH]3)c(=O)[nH]c2c1`, the cytotoxicity at 70.5 h was 26.6%.

As for `Cc1ccc(C)c(C(=O)N2CCOC(CCN(C)C)C2)c1` (configuration not stated), the cytotoxicity at 70.5 h was -9.2%.

In the case of `COc1ccc(Cl)cc1NC(=O)CCC1CCCN(Cc2ncon2)C1` (configuration not stated), the cytotoxicity at 70.5 h is -1.15%.

Turning to `COCc1ncc(CN2CC(Oc3c(C)cccc3C)C2)cn1`, the cytotoxicity at 70.5 h was -0.994%.

On to `COCC1(NC(=O)Nc2nc(C)ns2)CCCC1`, for which the cytotoxicity at 70.5 h is -13.9%.

With `COCC(=O)N1C[C@H]2CNC[C@@]2(C(=O)NCc2cccc3[nH]ccc23)C1`, the cytotoxicity at 70.5 h was -3.16%.

As to `CSc1nccc(N2C[C@@H]3CC[C@H](C2)N(CC2CCC2)C3=O)n1`, the cytotoxicity at 70.5 h was 13%.

In the case of `COc1ccc(F)c(CN2CCCC(O)(CNCc3ccoc3)C2=O)c1` (configuration not stated), the cytotoxicity at 70.5 h is -0.0121%.

As to `CN(CC1(CO)CCC1)C(=O)C1CCC(=O)N(Cc2ccc(Cl)cc2)C1` (configuration not stated), the cytotoxicity at 70.5 h was -1.24%.

`Cc1ccsc1S(=O)(=O)N1CCc2c(c(C(=O)O)nn2CC2CC2)C1`: the cytotoxicity at 70.5 h is -7.3%.

Take `O=C1CN(Cc2cc(O)c3cccc(F)c3n2)CCN1C1CCCC1`: the cytotoxicity at 70.5 h amounted to 5.5%.

Turning to `COC(=O)c1ccc(N2CCN(C(=O)c3ccn(C)c(=O)c3)CC2)cc1`, the cytotoxicity at 70.5 h stood at 1.93%.

As for `CN(Cc1ccccc1)C1(C(=O)NC(C)(C)CO)Cc2ccccc2C1`, the cytotoxicity at 70.5 h is 2.66%.

Take `O=S(=O)(c1ccc(-c2cnco2)cc1)N1CCCC2(CCNCC2)CC1`: the cytotoxicity at 70.5 h was determined as 0.207%.

`Nc1ccc(C(=O)N2C[C@@H]3CC[C@H](C2)N(Cc2ccccc2)C3)cn1`: the cytotoxicity at 70.5 h was -2.24%.

For `CC(C)N1CCOC(Cc2nn3c(Cc4ccccc4)nnc3s2)C1` (configuration not stated), the cytotoxicity at 70.5 h is -18.2%.

Consider `CN(Cc1ccco1)c1ccc(-c2nccn2C)nn1`, for which the cytotoxicity at 70.5 h came to 9.03%.

As for `Nc1nccc(N[C@H]2CN(CC(=O)NC3CCCCC3)C[C@@H]2C2CC2)n1`, the cytotoxicity at 70.5 h stood at 5.92%.

On to `Cn1cc(Cl)c(C(=O)N2CCCN(C3Cc4ccccc4C3)CC2)n1`, for which the cytotoxicity at 70.5 h was determined as 47.8%.

On to `COc1cc(F)ccc1-c1ncccc1NC(=O)C(C)C`, for which the cytotoxicity at 70.5 h is -7.03%.

For `CCS(=O)(=O)CCNCc1cc(O)c2cc(C)cc(C)c2n1`, the cytotoxicity at 70.5 h turned out to be 0.215%.

Consider `c1cnc(N2CCC(C3CCN(CCCn4cccn4)C3)CC2)nc1` (configuration not stated), for which the cytotoxicity at 70.5 h is 0.616%.

Consider `CSCCCN1CCC[C@]2(C(=O)O)CN(c3cnccn3)CC[C@@H]12`, for which the cytotoxicity at 70.5 h is 26.4%.

In the case of `CC(O)c1cn(C2CCN(C(=O)C3(C)CCN(C)CC3)CC2)nn1` (configuration not stated), the cytotoxicity at 70.5 h is -10.9%.

With `NC(=O)c1cc(-n2cc(-c3cccc(C(=O)O)c3)cn2)cs1`, the cytotoxicity at 70.5 h was -9.85%.

For the compound `COc1cccc(C(=O)N2CCN(C(=O)CCCn3ccnc3)CC2)c1`, the cytotoxicity at 70.5 h stood at 26.1%.

`CC(C)n1cnnc1Cn1c(=O)ccc2ccccc21`: the cytotoxicity at 70.5 h is -2.43%.

Turning to `CC(C)OCCCNC(=O)[C@@]12CNC[C@@H]1CN(S(C)(=O)=O)C2`, the cytotoxicity at 70.5 h was determined as 13.6%.

On to `CC(=O)NCCCC(=O)N1CCc2[nH]c(-c3ccccc3)nc2C1`, for which the cytotoxicity at 70.5 h is -5.92%.

In the case of `NC(=O)N1CCCC(C(=O)NCCc2nc(Cc3ccccc3)no2)C1` (configuration not stated), the cytotoxicity at 70.5 h is -17.9%.

Turning to `COc1ccc(C(=O)N2CCC(Oc3ccccc3)(C(=O)O)CC2)o1`, the cytotoxicity at 70.5 h turned out to be 2.93%.

Consider `CN(Cc1ncc[nH]1)C(=O)C(C)(C)NC(=O)c1cccs1`, for which the cytotoxicity at 70.5 h is -3.2%.

With `O=C(Nc1ccc2c(c1)OCCO2)N1CCCN(Cc2cccs2)CC1`, the cytotoxicity at 70.5 h was determined as 0.682%.

For `Cc1ccc(CN(C)C(=O)c2n[nH]c(N)c2-c2ccccc2)o1`, the cytotoxicity at 70.5 h was 28.7%.

For the compound `CCc1nc(C)sc1CN1CC[C@](O)(CC)[C@H](O)C1`, the cytotoxicity at 70.5 h was -6.34%.

For the compound `COC(=O)C1Cc2nc[nH]c2CN1Cc1ccc(Sc2ncccn2)o1` (configuration not stated), the cytotoxicity at 70.5 h is -0.897%.

Take `COc1ccc(-c2n[nH]cc2CN(C)CCCN2CCOCC2)c(F)c1`: the cytotoxicity at 70.5 h is -3.86%.

Take `CC(C)(NC(=O)C1CCCN(C2CCCC2)C1)c1nnc(N)s1` (configuration not stated): the cytotoxicity at 70.5 h is -3.27%.

For the compound `CC(=O)N[C@@H]1CN(C(=O)c2csc(C(C)C)n2)C[C@H]1C(C)C`, the cytotoxicity at 70.5 h was -7.11%.

For the compound `Cc1cccc(=O)n1CCCNc1ncnc2c1CCNCC2`, the cytotoxicity at 70.5 h is -6.31%.

For the compound `Cc1cnc(N2CCN(C)CC2)nc1-c1ccnn1C`, the cytotoxicity at 70.5 h is -13.9%.

Take `O=C(NCCN1CCNC1=O)c1cc(-c2ccc(O)cc2)n[nH]1`: the cytotoxicity at 70.5 h was -10.9%.

With `COCc1cn(C2CCN(C(=O)Cc3ccsc3)CC2)nn1`, the cytotoxicity at 70.5 h is -9.06%.

As for `COc1ncccc1C(=O)N1CCCC1c1nc(-c2ccccc2)no1` (configuration not stated), the cytotoxicity at 70.5 h is -5.54%.

For `CCCSCC(=O)N1CCC2(CC1)CC(c1ccccc1)CN(C)C2` (configuration not stated), the cytotoxicity at 70.5 h worked out at 4.01%.

With `c1ccc(CCNc2ncnc3c2CCN(Cc2c[nH]cn2)CC3)cc1`, the cytotoxicity at 70.5 h is -0.00958%.

For `Cc1nc(-c2cccc(N3CCC(N[C@@H]4CCOC4)CC3)c2)cs1`, the cytotoxicity at 70.5 h was 0.567%.

For `COCCc1noc(CN2CCC3(CCCO3)CCC2=O)n1` (configuration not stated), the cytotoxicity at 70.5 h stood at 15.5%.

For `NC(=O)NCC(=O)N1CCC2(CC1)c1ccccc1CC2O` (configuration not stated), the cytotoxicity at 70.5 h is -11.6%.

Consider `Cc1noc(-c2ccc(N(C)Cc3cccnc3)nc2)n1`, for which the cytotoxicity at 70.5 h was -15.4%.

Regarding `CCn1cc(NC(=O)c2cccc(CN3C[C@@H](C)O[C@@H](C)C3)c2)nn1`, the cytotoxicity at 70.5 h stood at 4.2%.

Take `CCN1CCN(C(=O)c2cc(-c3ccc(C)o3)n[nH]2)[C@H]2CS(=O)(=O)C[C@H]21`: the cytotoxicity at 70.5 h came out at 42.7%.

For `CC(C)(C)c1ncc2c(n1)CN(c1cc(NCCO)nc(N)n1)C2`, the cytotoxicity at 70.5 h was -12%.

For `COc1ccc(N2CCC(N(C)C(C)C(=O)N(C)C)CC2)cc1` (configuration not stated), the cytotoxicity at 70.5 h came out at 15.1%.

For the compound `CNc1cc(-c2nc(CCN3CCCC3=O)no2)ccn1`, the cytotoxicity at 70.5 h stood at 12.1%.

For `COCC1CCCCN1C(=O)c1cc(-c2cccc(OC)c2)n[nH]1` (configuration not stated), the cytotoxicity at 70.5 h is -6.73%.

As for `N#Cc1cccc(N2CCC3(CCC(=O)N(CC(N)=O)C3)CC2)n1`, the cytotoxicity at 70.5 h was -8.42%.
